Reference: ChEMBL document CHEMBL2412992, “Fluorescent ligands for adenosine receptors” (Bioorg Med Chem Lett, 2013)

Tests used:
Adenosine receptor A2a [1] = target: T1, Adenosine receptor A2a (Homo sapiens, UniProt P29274); assay: Binding affinity to human adenosine A2A receptor expressed in HEK293 cells by fluorescence polarization assay; format: cell-based
Adenosine receptor A2a [2] = target: T1, Adenosine receptor A2a; assay: Competitive binding affinity to human adenosine A2A receptor expressed in HEK293 cells after 60 mins by fluorescence polarization assay in presence of MRS5346
[3] = target: T2, Adenosine receptor A1 (Homo sapiens) (UniProt P30542); assay: Competitive antagonist activity at GFP-tagged adenosine A1 receptor (unknown origin) expressed in CHO cells assessed as stimulation of inositol phosphate accumulation by scintillation counting analysis; format: functional, cell-based
T2 sequence (whole entry): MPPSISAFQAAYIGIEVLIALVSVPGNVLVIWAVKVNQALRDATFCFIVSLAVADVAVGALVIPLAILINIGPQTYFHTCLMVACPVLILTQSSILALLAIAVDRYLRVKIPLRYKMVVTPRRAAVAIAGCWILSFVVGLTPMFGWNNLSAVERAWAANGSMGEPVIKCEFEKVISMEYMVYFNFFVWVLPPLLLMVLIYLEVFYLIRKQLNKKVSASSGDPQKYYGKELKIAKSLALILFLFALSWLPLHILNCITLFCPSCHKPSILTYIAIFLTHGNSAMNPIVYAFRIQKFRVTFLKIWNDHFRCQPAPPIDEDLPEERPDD

[4] = target: T2, Adenosine receptor A1 (Homo sapiens); assay: Competitive antagonist activity at GFP-tagged adenosine A1 receptor (unknown origin) expressed in CHO cells assessed as inhibition of forskolin-stimulated cAMP accumulation by liquid scintillation counting analysis; format: functional, cell-based
Adenosine receptor A1 [5] = target: T3, Adenosine receptor A1 (Bos taurus, UniProt P28190); assay: Displacement of [3H]ADAC from adenosine A1 receptor in bovine cerebral cortical membranes after 120 mins; format: cell membranes
T3 sequence (P28190 whole entry): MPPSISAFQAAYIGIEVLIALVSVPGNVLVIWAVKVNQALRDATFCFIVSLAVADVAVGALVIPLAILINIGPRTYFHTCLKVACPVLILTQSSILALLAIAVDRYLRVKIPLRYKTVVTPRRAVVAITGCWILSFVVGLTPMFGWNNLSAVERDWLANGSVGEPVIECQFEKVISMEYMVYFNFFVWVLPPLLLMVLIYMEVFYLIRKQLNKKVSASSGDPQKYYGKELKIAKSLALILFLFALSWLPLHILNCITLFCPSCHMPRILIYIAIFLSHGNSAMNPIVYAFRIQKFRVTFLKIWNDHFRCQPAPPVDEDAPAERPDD

Adenosine receptor A1 [6] = target: T4, Adenosine receptor A1 (Rattus norvegicus, UniProt P25099); assay: Displacement of [3H]ADAC from adenosine A1 receptor in rat cerebral cortical membranes after 120 mins; format: cell membranes, Membrane
T4 sequence (P25099 whole entry): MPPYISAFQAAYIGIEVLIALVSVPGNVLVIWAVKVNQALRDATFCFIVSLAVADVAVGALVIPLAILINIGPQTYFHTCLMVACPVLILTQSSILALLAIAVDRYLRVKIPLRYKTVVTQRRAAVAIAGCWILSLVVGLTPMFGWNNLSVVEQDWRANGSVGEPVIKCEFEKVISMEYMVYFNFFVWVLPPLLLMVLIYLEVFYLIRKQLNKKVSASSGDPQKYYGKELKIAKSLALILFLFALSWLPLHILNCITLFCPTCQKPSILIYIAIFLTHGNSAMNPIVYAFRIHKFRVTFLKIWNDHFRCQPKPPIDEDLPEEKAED

Adenosine receptor A2a [7] = target: T1, Adenosine receptor A2a; assay: Displacement of [3H]CGS21680 from human adenosine A2A receptor expressed in HEK293 cells at 10 uM after 60 mins by […] analysis relative to control; format: cell-based
[8] = target: T2, Adenosine receptor A1 (Homo sapiens); assay: Displacement of [3H]R-PIA from human adenosine A1 receptor expressed in CHO cells at 10 uM after 60 mins by […] analysis relative to control; format: cell-based
Adenosine receptor A3 [9] = target: T5, Adenosine receptor A3 (Homo sapiens, UniProt P0DMS8); format: cell-based, CHO
T5 sequence (P0DMS8 whole entry): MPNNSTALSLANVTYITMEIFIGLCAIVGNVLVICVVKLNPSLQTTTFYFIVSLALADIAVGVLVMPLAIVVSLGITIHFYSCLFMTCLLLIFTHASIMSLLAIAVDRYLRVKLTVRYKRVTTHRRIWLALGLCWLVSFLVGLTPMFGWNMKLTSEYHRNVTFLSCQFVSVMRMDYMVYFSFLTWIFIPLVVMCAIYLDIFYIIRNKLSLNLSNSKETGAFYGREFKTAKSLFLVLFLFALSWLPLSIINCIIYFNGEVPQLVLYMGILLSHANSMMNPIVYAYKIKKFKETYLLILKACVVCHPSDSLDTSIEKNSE

Adenosine receptor A3 [10] = target: T5, Adenosine receptor A3; assay: Binding affinity to human adenosine A3 receptor expressed in CHO cells after 90 mins; format: cell-based
Adenosine receptor A3 [11] = target: T5, Adenosine receptor A3; assay: Binding affinity to human adenosine A3 receptor expressed in CHO cells by flow cytometric analysis; format: cell-based
Adenosine receptor A2a [12] = target: T1, Adenosine receptor A2a; assay: Displacement of [3H]CGS21680 from human adenosine A2A receptor expressed in HEK293 cells after 60 mins by […] analysis; format: cell-based
Adenosine receptor A1 [13] = target: T6, Adenosine receptor A1 (Homo sapiens, UniProt P30542); assay: Displacement of [3H]R-PIA from human adenosine A1 receptor expressed in CHO cells after 60 mins by […] analysis; format: cell-based
T6 sequence (P30542 whole entry): T2 sequence (whole entry)

Uncharacterized protein = Uncharacterized protein (Bos taurus, UniProt E1BKU0); assay: Displacement of [3H]CGS21680 from adenosine A2A receptor in bovine striatal membranes after 90 mins by liquid scintillation counting analysis; format: cell membranes, Striatum, Membrane
Sequence of Uncharacterized protein (E1BKU0 whole entry): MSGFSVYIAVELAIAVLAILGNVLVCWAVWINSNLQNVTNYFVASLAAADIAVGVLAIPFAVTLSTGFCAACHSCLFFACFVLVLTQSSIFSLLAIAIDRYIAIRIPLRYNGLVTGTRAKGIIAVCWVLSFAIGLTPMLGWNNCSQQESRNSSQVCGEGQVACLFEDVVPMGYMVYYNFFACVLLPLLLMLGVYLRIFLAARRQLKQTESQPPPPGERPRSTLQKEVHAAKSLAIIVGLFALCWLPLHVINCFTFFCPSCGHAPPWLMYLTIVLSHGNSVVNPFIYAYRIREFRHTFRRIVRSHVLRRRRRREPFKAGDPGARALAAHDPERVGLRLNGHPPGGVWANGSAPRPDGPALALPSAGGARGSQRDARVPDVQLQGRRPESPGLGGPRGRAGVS

Adenosine receptor A3 [14] = target: T5, Adenosine receptor A3
Description: (§1) Displacement of [125I]I-AB-MECA from human adenosine A3 receptor expressed in CHO cells after 90 mins by gamma counting analysis

Adenosine receptor A3 [15] = target: T5, Adenosine receptor A3; remark: listed apart in the source
Description: Competitive binding affinity to human adenosine A3 receptor expressed in CHO cells after 90 mins by flow cytometric analysis in presence of MRS5449

Adenosine receptor A3 [16] = target: T5, Adenosine receptor A3; assay: biochemical
Description: as §1

T1 sequence (P29274 whole entry): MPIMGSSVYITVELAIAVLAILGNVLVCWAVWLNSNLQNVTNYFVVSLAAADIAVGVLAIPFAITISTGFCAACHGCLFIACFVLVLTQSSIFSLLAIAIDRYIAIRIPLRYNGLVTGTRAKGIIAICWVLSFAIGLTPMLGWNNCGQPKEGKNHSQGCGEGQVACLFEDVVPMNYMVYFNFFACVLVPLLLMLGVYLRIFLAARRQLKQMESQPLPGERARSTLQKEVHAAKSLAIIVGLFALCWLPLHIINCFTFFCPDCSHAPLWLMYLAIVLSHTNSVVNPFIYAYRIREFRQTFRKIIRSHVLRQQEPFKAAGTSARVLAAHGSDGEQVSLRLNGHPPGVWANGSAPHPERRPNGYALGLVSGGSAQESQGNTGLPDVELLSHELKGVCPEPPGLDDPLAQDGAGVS

N=c1ccc2c(-c3ccc(C(=O)NCCCCCCn4cc(NCCNC(=O)COc5ccc(CCCn6ncc7c6nc(N)n6nc(-c8ccco8)nc76)cc5)nn4)cc3C(=O)O)c3ccc(N)c(S(=O)(=O)O)c3oc-2c1S(=O)(=O)O
Kd (Adenosine receptor A2a [1]): 0.0165 µM

OC[C@H]1O[C@@H](n2cnc3c(NC4CCCC4)ncnc32)[C@H](O)[C@@H]1O [N6-CYCLOPENTYLADENOSINE]
Ki (Adenosine receptor A2a [2]): 0.814 µM

CCCn1c(=O)c2[nH]c(-c3ccc(OCC(=O)NCCNC(=O)CCCCCNC(=O)COc4ccc(/C=C/C5=[N+]6C(=Cc7ccc(-c8cccs8)n7[B-]6(F)F)C=C5)cc4)cc3)nc2n(CCC)c1=O
pKb [3]: 6.5 | pKb [4]: 6.4

O=C(Cc1ccc(NC(=O)Cc2ccc(Nc3ncnc4c3ncn4[C@@H]3O[C@H](CO)[C@@H](O)[C@H]3O)cc2)cc1)NCCNc1ccc([N+](=O)[O-])c2nonc12
Ki (Adenosine receptor A1 [5]): 0.00162 µM | Ki (Adenosine receptor A1 [6]): 0.00437 µM

O=C1C=CC2C(=C1)Oc1cc(O)ccc1C2c1ccc(NC(=S)NCCNC(=O)Cc2ccc(NC(=O)Cc3ccc(Nc4ncnc5c4ncn5[C@@H]4O[C@H](CO)[C@@H](O)[C@H]4O)cc3)cc2)cc1C(=O)O (stereo partly drawn)
Ki (Adenosine receptor A1 [5]): 0.00288 µM | Ki (Adenosine receptor A1 [6]): 0.00724 µM

Cn1cc2c(nc(NCCOCCOCCNC(=S)Nc3ccc(C4c5ccc(O)cc5OC5=CC(=O)C=CC54)c(C(=O)O)c3)n3nc(-c4ccco4)nc23)n1 (stereo not drawn)
inhibition (Adenosine receptor A2a [7]): 30% | inhibition [8]: 0% | Ki (Adenosine receptor A3 [9]): 9.55 µM

CCCn1c(=O)c2[nH]c(-c3ccc(OCC(=O)NCCNC(=S)Nc4ccc(C5c6ccc(O)cc6OC6=CC(=O)C=CC65)c(C(=O)O)c4)cc3)nc2n(CCC)c1=O (stereo not drawn)
Ki (Adenosine receptor A1 [5]): 0.00933 µM | Ki (Adenosine receptor A1 [6]): 0.126 µM

N=c1ccc2c(-c3ccc(C(=O)NCCCCCCn4cc(CCCC(=O)Nc5nc6ccc(Cl)cc6c6nc(-c7ccco7)nn56)nn4)cc3C(=O)O)c3ccc(N)c(S(=O)(=O)O)c3oc-2c1S(=O)(=O)O
Kd (Adenosine receptor A3 [10]): 0.00665 µM | Kd (Adenosine receptor A3 [11]): 0.00515 µM | Ki (Adenosine receptor A3 [9]): 0.00646 µM | Ki (Adenosine receptor A2a [12]): 0.0741 µM | Ki (Adenosine receptor A1 [13]): 0.0871 µM

CCNC(=O)[C@H]1O[C@@H](n2cnc3c(N)nc(NCCc4ccc(CCC(=O)NCCNC(=S)Nc5ccc(C6c7ccc(O)cc7OC7=CC(=O)C=CC76)c(C(=O)O)c5)cc4)nc32)[C@H](O)[C@@H]1O (stereo partly drawn)
Ki (Uncharacterized protein): 0.0112 µM

Nc1nc2ccc(Cl)cc2c2nc(-c3ccco3)nn12 [CGS-15943]
Ki (Adenosine receptor A3 [14]): 0.035 µM

Cn1cc2c(nc(NNC(=S)Nc3ccc(C4c5ccc(O)cc5OC5=CC(=O)C=CC54)c(C(=O)O)c3)n3nc(-c4ccco4)nc23)n1 (stereo not drawn)
Ki (Adenosine receptor A3 [9]): 0.794 µM | Ki (Adenosine receptor A2a [12]): 0.933 µM | Ki (Adenosine receptor A1 [13]): 9.55 µM

CCCN1C(=O)C2NC(c3ccc(OCC(=O)NCCNC(=O)NCC(=O)NCC(=O)NCC(=S)c4ccc(C5c6ccc(O)cc6OC6=CC(=O)C=CC65)c(C(=O)O)c4)cc3)=NC2N(CCC)C1=O (stereo not drawn)
Ki (Adenosine receptor A1 [5]): 0.017 µM | Ki (Adenosine receptor A1 [6]): 0.0977 µM

CC[C@@H]1CN2C(=O)N(C)c3nc(-c4cc(Cl)cc(Cl)c4Cl)[nH]c3C2=N1
Ki (Adenosine receptor A3 [15]): 0.00954 µM | Ki (Adenosine receptor A3 [16]): 0.000441 µM

Nc1nc(NCCc2ccc(O)cc2)nc2nc(-c3ccco3)nn12 [ZM-241385]
Ki (Adenosine receptor A3 [14]): 0.743 µM
